Drawing on US9546172B2, “Pyrazolo[3,4-d]pyrimidine and pyrazolo[2,3-d]pyrimidine compounds as kinase inhibitors” (Pharmacyclics LLC, priority 2011, dated 2017), this text covers IC50 for seven compounds.

Holding throughout (type): biochemical
One assay deals with RET (Homo sapiens, UniProt P07949). Nature of the assay: RET kinase inhibition.
A further assay addresses CSK (Homo sapiens, UniProt P41240). Nature of the assay: CSK kinase inhibition.
Another assay concerns the target T1, Btk (Homo sapiens, UniProt Q06187).
T1 construct: purified from insect cells as a full-length construct containing a N-terminal 6×-His tag; 6xHis (N); host or cells: insect cells (baculovirus Sf21 in Method B)
The assay can be described thus: Btk in vitro inhibitory activity (one of Methods A, B, C). Particulars: determined in one of three in vitro assays (Examples 125-127). In a few lines: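 Values come from one of three formats: TR-FRET (665/615 nm ratio; Ki(app) converted to IC50 with [ATP]=Km, 0.5 nM Btk), mobility-shift product/sum ratio over 12 concentrations with 4-parameter fit, or radiometric filter binding using His-tagged full-length human Btk (8 nM), 0.2 mg/mL poly-Glu-Tyr, 1 μM ATP, 120 min RT.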

The target in a further assay is T2, BMX (Homo sapiens, UniProt P51813).
T2 sequence (P51813 1-675): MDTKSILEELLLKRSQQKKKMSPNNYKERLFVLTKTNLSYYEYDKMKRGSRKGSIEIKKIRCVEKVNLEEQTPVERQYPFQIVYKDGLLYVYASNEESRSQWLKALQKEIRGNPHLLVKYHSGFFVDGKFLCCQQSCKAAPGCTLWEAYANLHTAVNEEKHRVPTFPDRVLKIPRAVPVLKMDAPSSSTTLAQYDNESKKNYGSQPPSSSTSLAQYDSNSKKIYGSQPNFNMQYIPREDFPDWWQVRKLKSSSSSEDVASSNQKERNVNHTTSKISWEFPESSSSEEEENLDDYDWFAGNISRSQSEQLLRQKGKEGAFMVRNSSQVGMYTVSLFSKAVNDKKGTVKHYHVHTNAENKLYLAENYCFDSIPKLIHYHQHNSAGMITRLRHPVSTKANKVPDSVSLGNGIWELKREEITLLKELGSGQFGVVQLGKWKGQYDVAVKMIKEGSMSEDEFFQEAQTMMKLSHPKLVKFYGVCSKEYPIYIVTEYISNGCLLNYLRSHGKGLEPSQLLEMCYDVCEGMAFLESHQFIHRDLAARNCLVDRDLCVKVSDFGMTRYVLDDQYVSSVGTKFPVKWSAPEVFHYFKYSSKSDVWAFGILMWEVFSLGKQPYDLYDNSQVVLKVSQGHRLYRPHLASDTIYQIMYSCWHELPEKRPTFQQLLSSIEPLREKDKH
The assay can be described thus: BMX kinase inhibition.

Another assay concerns the target C-src (Homo sapiens, UniProt P12931). Nature of the assay: C-src kinase inhibition.
A further assay has as its target Lck (Homo sapiens, UniProt P06239). Nature of the assay: Lck kinase inhibition. In short, it runs like this:
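TR-FRET kinase assay; reactions were quenched with EDTA, then streptavidin-APC (100 nM final) and Eu-labeled anti-pTyr antibody (2.5 nM final) were added for 1 h. Activity was taken as the 665/615 nm emission ratio. Ki(app) was fitted from compound titrations and converted to IC50 with ATP at Km.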

The target in the next assay is Lyn (Homo sapiens, UniProt P07948). The assay can be described thus: Lyn kinase inhibition.
Sequence of Lyn (P07948 whole entry): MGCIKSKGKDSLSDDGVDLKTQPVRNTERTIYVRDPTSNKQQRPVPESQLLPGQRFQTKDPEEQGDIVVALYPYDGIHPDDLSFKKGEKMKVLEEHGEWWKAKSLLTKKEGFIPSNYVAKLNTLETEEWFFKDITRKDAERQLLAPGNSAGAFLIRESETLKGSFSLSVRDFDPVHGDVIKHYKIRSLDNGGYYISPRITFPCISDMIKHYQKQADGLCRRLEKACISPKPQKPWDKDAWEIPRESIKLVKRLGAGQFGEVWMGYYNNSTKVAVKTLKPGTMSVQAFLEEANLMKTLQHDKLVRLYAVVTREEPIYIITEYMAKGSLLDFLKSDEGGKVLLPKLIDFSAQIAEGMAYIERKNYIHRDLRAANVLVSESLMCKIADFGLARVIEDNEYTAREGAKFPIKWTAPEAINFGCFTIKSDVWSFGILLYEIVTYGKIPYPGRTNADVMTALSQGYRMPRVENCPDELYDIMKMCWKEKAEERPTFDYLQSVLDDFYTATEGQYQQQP
The target of the next assay is BLK (Homo sapiens, UniProt P51451). The assay can be described thus: BLK kinase inhibition.
Sequence of BLK (P51451 whole entry): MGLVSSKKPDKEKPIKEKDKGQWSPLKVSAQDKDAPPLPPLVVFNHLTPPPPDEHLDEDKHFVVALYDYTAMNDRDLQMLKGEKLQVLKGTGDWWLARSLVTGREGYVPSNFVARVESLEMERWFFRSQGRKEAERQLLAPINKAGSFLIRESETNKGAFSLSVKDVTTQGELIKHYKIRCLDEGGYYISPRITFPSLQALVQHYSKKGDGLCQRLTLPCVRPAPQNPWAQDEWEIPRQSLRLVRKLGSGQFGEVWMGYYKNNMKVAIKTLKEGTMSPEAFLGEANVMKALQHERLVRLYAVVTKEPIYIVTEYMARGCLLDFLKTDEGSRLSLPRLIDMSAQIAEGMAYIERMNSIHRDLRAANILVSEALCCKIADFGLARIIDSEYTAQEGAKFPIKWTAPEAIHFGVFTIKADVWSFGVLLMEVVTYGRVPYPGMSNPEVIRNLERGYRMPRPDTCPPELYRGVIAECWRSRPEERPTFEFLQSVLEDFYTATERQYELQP
In a further assay the target is T3, Tec (Homo sapiens, UniProt P42680).
T3 sequence (P42680 1-631): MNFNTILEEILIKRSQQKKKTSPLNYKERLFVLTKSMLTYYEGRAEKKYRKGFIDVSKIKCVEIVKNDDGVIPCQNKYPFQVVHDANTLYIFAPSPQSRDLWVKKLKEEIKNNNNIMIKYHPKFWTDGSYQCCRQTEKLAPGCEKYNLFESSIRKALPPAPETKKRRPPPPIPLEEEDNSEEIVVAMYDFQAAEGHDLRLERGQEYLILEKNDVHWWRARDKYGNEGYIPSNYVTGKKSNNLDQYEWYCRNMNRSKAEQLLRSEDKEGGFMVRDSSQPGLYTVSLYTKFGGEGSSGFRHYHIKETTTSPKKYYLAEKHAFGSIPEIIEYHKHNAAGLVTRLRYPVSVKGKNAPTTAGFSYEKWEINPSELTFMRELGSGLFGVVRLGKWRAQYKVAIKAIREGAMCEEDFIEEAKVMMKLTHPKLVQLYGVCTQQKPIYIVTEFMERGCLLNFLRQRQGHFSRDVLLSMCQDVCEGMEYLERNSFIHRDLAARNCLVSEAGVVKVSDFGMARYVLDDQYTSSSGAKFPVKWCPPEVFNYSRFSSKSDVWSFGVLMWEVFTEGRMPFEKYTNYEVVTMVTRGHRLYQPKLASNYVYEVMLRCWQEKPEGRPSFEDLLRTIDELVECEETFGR
The assay can be described thus: Tec kinase inhibition.

Another assay addresses EGFR (Homo sapiens, UniProt P00533). Nature of the assay: EGFR kinase inhibition.

Sequence of RET (P07949 29-1114): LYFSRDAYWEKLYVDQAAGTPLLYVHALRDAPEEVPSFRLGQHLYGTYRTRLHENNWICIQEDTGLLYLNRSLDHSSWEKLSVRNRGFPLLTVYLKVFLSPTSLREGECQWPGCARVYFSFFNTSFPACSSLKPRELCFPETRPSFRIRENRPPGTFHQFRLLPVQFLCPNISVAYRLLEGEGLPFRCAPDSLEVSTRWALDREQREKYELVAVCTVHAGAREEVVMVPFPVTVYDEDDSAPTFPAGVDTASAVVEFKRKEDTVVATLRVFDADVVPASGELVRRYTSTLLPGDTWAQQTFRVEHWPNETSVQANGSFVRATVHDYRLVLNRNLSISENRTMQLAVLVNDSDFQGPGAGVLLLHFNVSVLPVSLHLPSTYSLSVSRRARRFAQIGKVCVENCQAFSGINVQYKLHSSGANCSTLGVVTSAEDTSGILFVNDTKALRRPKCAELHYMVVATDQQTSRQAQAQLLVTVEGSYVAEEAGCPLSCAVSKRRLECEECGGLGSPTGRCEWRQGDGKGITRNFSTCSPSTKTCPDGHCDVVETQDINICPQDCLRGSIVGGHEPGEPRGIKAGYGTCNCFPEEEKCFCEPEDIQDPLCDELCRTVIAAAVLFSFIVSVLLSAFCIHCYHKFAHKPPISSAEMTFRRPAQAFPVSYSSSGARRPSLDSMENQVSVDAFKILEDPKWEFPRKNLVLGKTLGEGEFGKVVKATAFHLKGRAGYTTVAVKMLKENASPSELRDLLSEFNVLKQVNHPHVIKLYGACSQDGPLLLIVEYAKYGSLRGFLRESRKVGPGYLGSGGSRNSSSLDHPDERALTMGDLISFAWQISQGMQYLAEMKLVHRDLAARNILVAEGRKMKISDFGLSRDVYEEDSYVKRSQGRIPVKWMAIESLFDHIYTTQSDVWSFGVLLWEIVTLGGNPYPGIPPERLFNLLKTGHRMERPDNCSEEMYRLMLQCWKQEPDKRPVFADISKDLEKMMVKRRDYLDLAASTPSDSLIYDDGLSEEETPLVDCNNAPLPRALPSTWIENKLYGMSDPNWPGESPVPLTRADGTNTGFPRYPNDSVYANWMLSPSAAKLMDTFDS
T1 sequence (Q06187 whole entry): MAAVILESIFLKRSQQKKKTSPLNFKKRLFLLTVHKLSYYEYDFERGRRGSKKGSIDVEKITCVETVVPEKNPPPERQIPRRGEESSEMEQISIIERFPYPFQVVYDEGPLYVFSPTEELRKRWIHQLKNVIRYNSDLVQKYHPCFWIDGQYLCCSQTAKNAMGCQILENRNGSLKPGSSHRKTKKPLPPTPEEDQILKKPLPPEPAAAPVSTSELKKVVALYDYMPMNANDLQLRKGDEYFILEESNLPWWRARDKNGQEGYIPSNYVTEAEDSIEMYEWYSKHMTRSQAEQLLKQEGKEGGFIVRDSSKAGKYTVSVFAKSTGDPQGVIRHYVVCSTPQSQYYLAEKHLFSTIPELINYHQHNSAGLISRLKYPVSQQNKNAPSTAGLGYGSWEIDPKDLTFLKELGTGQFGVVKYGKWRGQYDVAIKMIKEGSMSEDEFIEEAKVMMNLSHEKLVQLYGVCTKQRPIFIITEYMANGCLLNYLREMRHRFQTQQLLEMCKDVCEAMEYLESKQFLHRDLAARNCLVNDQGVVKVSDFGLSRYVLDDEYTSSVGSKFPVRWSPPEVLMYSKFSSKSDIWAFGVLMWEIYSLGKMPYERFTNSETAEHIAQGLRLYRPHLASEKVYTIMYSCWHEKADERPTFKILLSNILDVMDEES
Sequence of C-src (P12931 whole entry): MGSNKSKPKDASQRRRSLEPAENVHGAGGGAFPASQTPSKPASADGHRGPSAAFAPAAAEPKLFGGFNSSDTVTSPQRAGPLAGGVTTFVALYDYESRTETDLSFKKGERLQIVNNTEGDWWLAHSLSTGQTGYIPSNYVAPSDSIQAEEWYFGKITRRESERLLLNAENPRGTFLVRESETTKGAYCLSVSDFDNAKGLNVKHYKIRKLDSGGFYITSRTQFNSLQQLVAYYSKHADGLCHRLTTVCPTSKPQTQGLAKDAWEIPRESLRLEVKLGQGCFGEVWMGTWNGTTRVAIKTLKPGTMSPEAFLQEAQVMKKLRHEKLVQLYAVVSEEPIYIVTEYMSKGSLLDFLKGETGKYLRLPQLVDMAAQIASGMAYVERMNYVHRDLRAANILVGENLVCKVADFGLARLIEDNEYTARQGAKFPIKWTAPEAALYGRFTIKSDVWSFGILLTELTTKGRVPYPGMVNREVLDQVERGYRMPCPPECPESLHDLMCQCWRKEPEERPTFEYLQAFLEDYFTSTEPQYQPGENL
Sequence of CSK (P41240 whole entry): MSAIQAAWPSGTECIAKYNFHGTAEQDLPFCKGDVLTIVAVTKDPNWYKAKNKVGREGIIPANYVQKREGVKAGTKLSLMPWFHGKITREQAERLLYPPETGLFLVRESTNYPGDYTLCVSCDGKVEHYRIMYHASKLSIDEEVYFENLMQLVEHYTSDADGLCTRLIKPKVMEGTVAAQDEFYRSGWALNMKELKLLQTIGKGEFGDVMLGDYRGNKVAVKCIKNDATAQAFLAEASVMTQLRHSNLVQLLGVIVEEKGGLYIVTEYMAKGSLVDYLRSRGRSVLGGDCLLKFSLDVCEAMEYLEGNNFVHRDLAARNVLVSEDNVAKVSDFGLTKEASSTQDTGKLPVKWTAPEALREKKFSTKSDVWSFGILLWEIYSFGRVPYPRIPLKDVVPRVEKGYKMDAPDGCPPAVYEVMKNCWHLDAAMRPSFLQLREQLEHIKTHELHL
Sequence of EGFR (P00533 25-1210): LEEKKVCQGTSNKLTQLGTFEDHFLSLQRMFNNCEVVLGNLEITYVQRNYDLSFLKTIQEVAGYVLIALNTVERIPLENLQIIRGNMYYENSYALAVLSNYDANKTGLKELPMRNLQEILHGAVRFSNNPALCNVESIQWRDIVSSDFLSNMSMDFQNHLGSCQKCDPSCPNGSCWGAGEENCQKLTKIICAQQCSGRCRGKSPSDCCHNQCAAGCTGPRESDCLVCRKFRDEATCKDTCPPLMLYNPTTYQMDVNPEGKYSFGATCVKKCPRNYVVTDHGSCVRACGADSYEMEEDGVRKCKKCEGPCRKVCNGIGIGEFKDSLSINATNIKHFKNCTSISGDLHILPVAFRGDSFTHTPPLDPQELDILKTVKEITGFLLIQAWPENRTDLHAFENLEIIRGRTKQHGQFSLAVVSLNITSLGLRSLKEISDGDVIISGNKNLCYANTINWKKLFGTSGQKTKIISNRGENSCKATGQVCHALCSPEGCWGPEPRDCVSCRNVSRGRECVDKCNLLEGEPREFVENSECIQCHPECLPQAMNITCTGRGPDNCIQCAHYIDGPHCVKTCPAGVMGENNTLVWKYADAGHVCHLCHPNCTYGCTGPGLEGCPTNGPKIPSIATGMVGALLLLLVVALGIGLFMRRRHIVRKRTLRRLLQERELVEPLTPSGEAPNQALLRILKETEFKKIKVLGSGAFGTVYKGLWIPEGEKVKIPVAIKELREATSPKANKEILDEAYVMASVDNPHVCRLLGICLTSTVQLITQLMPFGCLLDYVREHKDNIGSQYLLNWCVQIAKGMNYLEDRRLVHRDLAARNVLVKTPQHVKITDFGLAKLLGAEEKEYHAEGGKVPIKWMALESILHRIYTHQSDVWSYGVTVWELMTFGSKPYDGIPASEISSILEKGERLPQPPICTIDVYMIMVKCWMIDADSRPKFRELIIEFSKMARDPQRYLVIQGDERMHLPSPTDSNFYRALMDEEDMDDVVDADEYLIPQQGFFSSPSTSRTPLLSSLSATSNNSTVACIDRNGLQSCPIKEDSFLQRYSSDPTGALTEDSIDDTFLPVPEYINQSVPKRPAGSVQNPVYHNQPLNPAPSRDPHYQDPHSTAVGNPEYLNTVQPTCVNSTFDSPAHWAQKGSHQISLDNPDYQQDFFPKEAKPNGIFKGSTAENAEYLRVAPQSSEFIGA

Usually IC50 stands for the concentration at which inhibition is half-maximal. Lower therefore signals greater potency in that assay. Consider `CN(C/C=C/C(=O)N1CC[C@@H](n2nc(-c3ccc(F)cc3)c3c(N)ncnc32)C1)C1CCC1` [Example 11, (R,E)-1-(3-(4-amino-3-(4-fluorophenyl)-1H-pyrazolo[3,4-d]pyrimidin-1-yl)pyrrolidin-1-yl)-4-(cyclobutyl(methyl)amino)but-2-en-1-one], for which the IC50 is more than 1000 nM on RET; more than 1000 nM against CSK; less than 100 nM on Btk; less than 100 nM at BMX; more than 1000 nM on C-src; 100 to 1000 nM at Lck. Further, the IC50 was more than 1000 nM against Lyn, more than 1000 nM against BLK, less than 100 nM on Tec and more than 1000 nM against EGFR.

As to `Cc1ccc(-c2nn([C@@H]3CCN(C(=O)/C=C/CN(C)C4CCC4)C3)c3ncnc(N)c23)cc1` [Example 12, (R,E)-1-(3-(4-amino-3-p-tolyl-1H-pyrazolo[3,4-d]pyrimidin-1-yl)pyrrolidin-1-yl)-4-(cyclobutyl(methyl)amino)but-2-en-1-one], the half-inhibitory concentration (IC50) on RET is 100 to 1000 nM; on CSK it was more than 1000 nM; at Btk, less than 100 nM; against BMX, less than 100 nM; against C-src, 100 to 1000 nM; against Lck, 100 to 1000 nM. Further, the IC50 was more than 1000 nM against Lyn, 100 to 1000 nM on BLK, less than 100 nM against Tec and more than 1000 nM on EGFR.

As for `COc1cccc(-c2nn([C@@H]3CCN(C(=O)/C=C/CN(C)C4CCC4)C3)c3ncnc(N)c23)c1` [Example 13, (R,E)-1-(3-(4-amino-3-(3-methoxyphenyl)-1H-pyrazolo[3,4-d]pyrimidin-1-yl)pyrrolidin-1-yl)-4-(cyclobutyl(methyl)amino)but-2-en-1-one], the IC50 is more than 1000 nM on RET; more than 1000 nM on CSK; less than 100 nM at Btk; less than 100 nM against BMX; more than 1000 nM at C-src; 100 to 1000 nM on Lck. Further, the IC50 against Lyn was more than 1000 nM; on BLK, 100 to 1000 nM; on Tec, less than 100 nM; at EGFR, more than 1000 nM.

For the compound `CN(C)C/C=C/C(=O)N(C)c1ccc(-n2nc(-c3ccc(Cl)cc3)c3c(N)ncnc32)cc1` [Example 14, (E)-N-(4-(4-amino-3-(4-chlorophenyl)-1H-pyrazolo[3,4-d]pyrimidin-1-yl)phenyl)-4-(dimethylamino)-N-methylbut-2-enamide], the half-inhibitory concentration (IC50) against RET was 100 to 1000 nM; against CSK it was 100 to 1000 nM; against Btk it was less than 100 nM; on BMX it was less than 100 nM; against C-src, less than 100 nM; on Lck, 100 to 1000 nM. The half-maximal inhibitory concentration (IC50) against Lyn was 100 to 1000 nM; against BLK, 100 to 1000 nM; at Tec, less than 100 nM; against EGFR, 100 to 1000 nM.

`CN(C)C/C=C/C(=O)N(C)c1cccc(-n2nc(-c3ccc(Cl)cc3)c3c(N)ncnc32)c1` [Example 21, (E)-N-(3-(4-amino-3-(4-chlorophenyl)-1H-pyrazolo[3,4-d]pyrimidin-1-yl)phenyl)-4-(dimethylamino)-N-methylbut-2-enamide]: the IC50 is more than 1000 nM at RET; more than 1000 nM against CSK; less than 100 nM against Btk; less than 100 nM against BMX; 100 to 1000 nM at C-src; 100 to 1000 nM against Lck. Further, the IC50 is more than 1000 nM against Lyn, less than 100 nM at BLK, less than 100 nM against Tec and less than 100 nM against EGFR.

Consider `COc1cc(-c2nn(-c3cccc(N(C)C(=O)/C=C/CN(C)C4CCC4)c3)c3ncnc(N)c23)ccc1C` [Example 23, (E)-N-(3-(4-amino-3-(3-methoxy-4-methylphenyl)-1H-pyrazolo[3,4-d]pyrimidin-1-yl)phenyl)-4-(cyclobutyl(methyl)amino)-N-methylbut-2-enamide], for which the IC50 on RET was more than 1000 nM; at CSK it was more than 1000 nM; at Btk, less than 100 nM; on BMX it was less than 100 nM; at C-src, less than 100 nM; against Lck it was 100 to 1000 nM. Moreover, the IC50 against Lyn, on BLK, against Tec and against EGFR was less than 100 nM throughout.

For the compound `CN(C)C/C=C/C(=O)Nc1cccc(-n2nc(-c3ccc(Cl)cc3)c3c(N)ncnc32)c1` [Example 27, (E)-N-(3-(4-amino-3-(4-chlorophenyl)-1H-pyrazolo[3,4-d]pyrimidin-1-yl)phenyl)-4-(dimethylamino)but-2-enamide], the IC50 against RET was 100 to 1000 nM; against CSK, 100 to 1000 nM; against Btk it was less than 100 nM; on BMX, less than 100 nM; at C-src, less than 100 nM; against Lck, less than 100 nM. The IC50 against Lyn was 100 to 1000 nM; against BLK it was less than 100 nM; against Tec, less than 100 nM; at EGFR, less than 100 nM.
